According to patent publication US4808711A, “Cephalosporin derivatives” (Sankei Pharmaceutical Co., Ltd., priority 1985, dated 1989):
≈ marks a conversion by molar mass, not a printed value.

How the values were obtained:
Type in all cases: cell-based
E. coli NIHJ JC-2 = assay: MIC, E. coli NIHJ JC-2; settings: Escherichia coli, NIHJJC2, read-out: MIC
Protocol: (§1) The minimum inhibition concentrations (MIC) of the compounds obtained by the present invention were measured according to the standard method of Japanese Chemotherapy Association.

S. epidermidis ATCC14990 = assay: MIC, S. epidermidis ATCC14990; settings: Staphylococcus epidermidis, read-out: MIC
Protocol: as §1

[1] = system: S. flexneri 2a CDC 4807-62; assay: MIC, S. flexneri 2a CDC 4807-62; settings: Shigella flexneri, read-out: MIC
Protocol: as §1

P. fluorescens ATCC13525 = assay: MIC, P. fluorescens ATCC13525; settings: Pseudomonas fluorescens, read-out: MIC
Protocol: as §1

K. pneumoniae ATCC27736 = assay: MIC, K. pneumoniae ATCC27736; settings: Klebsiella pneumoniae, read-out: MIC
Protocol: as §1

S. dysenteriae 4379-60 = assay: MIC, S. dysenteriae 4379-60; settings: Shigella dysenteriae, 437960
Protocol: as §1

S. aureus TASAKI = assay: MIC, S. aureus TASAKI; settings: Staphylococcus aureus; S. aureus TASAKI; standard method of Japanese Chemotherapy Association; read-out: MIC
Protocol: as §1

S. paratyphi C 33-76 = assay: MIC, S. paratyphi C 33-76; settings: Salmonella enterica, PARATYPHI
Protocol: as §1

P. putida ATCC12633 = assay: MIC, P. putida ATCC12633; settings: Pseudomonas putida
Protocol: as §1

P. mirabilis IFO3849 = assay: MIC, P. mirabilis IFO3849; settings: Proteus mirabilis, read-out: MIC
Protocol: as §1

S. typhimurium ATCC13311 = assay: MIC, S. typhimurium ATCC13311; settings: Salmonella enterica, read-out: MIC
Protocol: as §1

S. boyadii CDC 2064-59 = assay: MIC, S. boyadii CDC 2064-59
Protocol: as §1

S. aureus Smith = assay: MIC, S. aureus Smith; settings: Staphylococcus aureus, read-out: MIC
Protocol: as §1

S. marcescens IFO12648 = assay: MIC, S. marcescens IFO12648; settings: Serratia marcescens, read-out: MIC
Protocol: as §1

P. maltophilia ATCC13637 = assay: MIC, P. maltophilia ATCC13637; settings: Stenotrophomonas maltophilia
Protocol: as §1

E. cloacae ATCC13047 = assay: MIC, E. cloacae ATCC13047; settings: Enterobacter cloacae
Protocol: as §1

P. rettgeri ATCC14505 = assay: MIC, P. rettgeri ATCC14505; settings: Providencia rettgeri, read-out: MIC
Protocol: as §1

S. sonnei SH72-415 = assay: MIC, S. sonnei SH72-415; settings: Shigella sonnei, SH72415, read-out: MIC
Protocol: as §1

S. typhimurium IFO 12529 = assay: MIC, S. typhimurium IFO 12529; settings: Salmonella enterica, read-out: MIC
Protocol: as §1

S. anatum 677-69 = assay: MIC, S. anatum 677-69; settings: Salmonella enterica, 67769, read-out: MIC
Protocol: as §1

P. vulgaris ATCC6380 = assay: MIC, P. vulgaris ATCC6380; settings: Proteus vulgaris, read-out: MIC
Protocol: as §1

B. subtilis ATCC6633 = assay: MIC, B. subtilis ATCC6633; settings: Bacillus subtilis; B. subtilis ATCC6633; read-out: MIC
Protocol: as §1

S. faecalis IFO3826 = assay: MIC, S. faecalis IFO3826; settings: Enterococcus faecalis, read-out: MIC
Protocol: as §1

E. coli ATCC25922 = assay: MIC, E. coli ATCC25922; settings: Escherichia coli, read-out: MIC
Protocol: as §1

S. typhi 1099-77 = assay: MIC, S. typhi 1099-77; settings: Salmonella enterica, TYPHI
Protocol: as §1

S. flexneri Y NCTC 9730 = assay: MIC, S. flexneri Y NCTC 9730; settings: Shigella flexneri, NCTC9730, read-out: MIC
Protocol: as §1

S. newport 563 = assay: MIC, S. newport 563; settings: Salmonella enterica, read-out: MIC
Protocol: as §1

P. cepacia ATCC25416 = assay: MIC, P. cepacia ATCC25416; settings: Burkholderia cepacia, read-out: MIC
Protocol: as §1

S. aureus ATCC25923 = assay: MIC, S. aureus ATCC25923; settings: Staphylococcus aureus; S. aureus ATCC25923; read-out: MIC
Protocol: as §1

S. paratyphi A 144-12-93 = assay: MIC, S. paratyphi A 144-12-93; settings: Salmonella enterica, PARATYPHI
Protocol: as §1

S. aureus 209P JC-1 = assay: MIC, S. aureus 209P JC-1; settings: Staphylococcus aureus; S. aureus 209P JC-1; read-out: MIC
Protocol: as §1

P. vulgaris ATCC6398 = assay: MIC, P. vulgaris ATCC6398; settings: Proteus vulgaris, read-out: MIC
Protocol: as §1

P. aeruginosa ATCC9721 = assay: MIC, P. aeruginosa ATCC9721; settings: Pseudomonas aeruginosa; P. aeruginosa ATCC9721; read-out: MIC
Protocol: as §1

C. freundii IFO12681 = assay: MIC, C. freundii IFO12681; settings: Citrobacter freundii, read-out: MIC
Protocol: as §1

S. paratyphi B = assay: MIC, S. paratyphi B; settings: Salmonella enterica, PARATYPHI
Protocol: as §1

C. freundii GN7391 = assay: MIC, C. freundii GN7391; settings: Citrobacter freundii
Protocol: as §1

E. Coli GN5482 = assay: MIC, E. Coli GN5482; settings: Escherichia coli
Protocol: as §1

S. marcescens GN10851 = assay: MIC, S. marcescens GN10851; settings: Serratia marcescens
Protocol: as §1

E. coli W3630/Rms212 = assay: MIC, E. coli W3630/Rms212; settings: Escherichia coli
Protocol: as §1

P. aeruginosa GN10 = assay: MIC, P. aeruginosa GN10; settings: Pseudomonas aeruginosa
Protocol: as §1

P. rettgeri GN4430 = assay: MIC, P. rettgeri GN4430; settings: Providencia rettgeri
Protocol: as §1

E. cloacae GN7471 = assay: MIC, E. cloacae GN7471; settings: Enterobacter cloacae
Protocol: as §1

P. vulgaris GN7919 = assay: MIC, P. vulgaris GN7919; settings: Proteus vulgaris
Protocol: as §1

P. morganii GN5407 = assay: MIC, P. morganii GN5407; settings: Morganella morganii
Protocol: as §1

E. coli W3630/Rte16 = assay: MIC, E. coli W3630/Rte16; settings: Escherichia coli
Protocol: as §1

E. coli W3630/Rms213 = assay: MIC, E. coli W3630/Rms213; settings: Escherichia coli
Protocol: as §1

With Cn1nnnc1SCC1=C(C(=O)O)N2C(=O)C(NC(=O)C(=NOCC(=O)NNC(=O)c3ccc(O)c(O)c3)c3csc(N)n3)C2SC1 (stereo not drawn) [Example 62] as the compound, how does the MIC (E. coli NIHJ JC-2) read?
Its MIC is 0.78 mg/L (≈ 1.11 µM).

What about the MIC (S. epidermidis ATCC14990) of the same compound?
The MIC was 0.39 mg/L (≈ 0.553 µM).

What about the MIC [1] of the same compound?
Its MIC is 0.1 mg/L (≈ 0.142 µM).

What about the MIC (P. fluorescens ATCC13525) of the same compound?
The MIC was 12.5 mg/L (≈ 17.7 µM).

What about the MIC (K. pneumoniae ATCC27736) of the same compound?
The MIC was 0.012 mg/L (≈ 0.017 µM).

And the MIC (S. dysenteriae 4379-60)?
Its MIC is 0.025 mg/L (≈ 0.0354 µM).

What about the MIC (S. aureus TASAKI) of the same compound?
Its MIC is 1.56 mg/L (≈ 2.21 µM).

And the MIC (S. paratyphi C 33-76)?
The MIC was 0.012 mg/L (≈ 0.017 µM).

What about the MIC (P. putida ATCC12633) of the same compound?
The MIC was 1.56 mg/L (≈ 2.21 µM).

What about the MIC (P. mirabilis IFO3849) of the same compound?
The MIC was 0.39 mg/L (≈ 0.553 µM).

And the MIC (S. typhimurium ATCC13311)?
The MIC was 0.025 mg/L (≈ 0.0354 µM).

What about the MIC (S. boyadii CDC 2064-59) of the same compound?
The MIC was 0.39 mg/L (≈ 0.553 µM).

And the MIC (S. aureus Smith)?
The MIC was 3.13 mg/L (≈ 4.44 µM).

And the MIC (S. marcescens IFO12648)?
The MIC was 0.39 mg/L (≈ 0.553 µM).

What about the MIC (P. maltophilia ATCC13637) of the same compound?
The MIC was 1.56 mg/L (≈ 2.21 µM).

What about the MIC (E. cloacae ATCC13047) of the same compound?
The MIC was 3.13 mg/L (≈ 4.44 µM).

And the MIC (P. rettgeri ATCC14505)?
Its MIC is 1.56 mg/L (≈ 2.21 µM).

What about the MIC (S. sonnei SH72-415) of the same compound?
The MIC was 0.05 mg/L (≈ 0.0708 µM).

And the MIC (S. typhimurium IFO 12529)?
Its MIC is 0.05 mg/L (≈ 0.0708 µM).

What about the MIC (S. anatum 677-69) of the same compound?
The MIC was 0.025 mg/L (≈ 0.0354 µM).

And the MIC (P. vulgaris ATCC6380)?
Its MIC is 0.39 mg/L (≈ 0.553 µM).

What about the MIC (B. subtilis ATCC6633) of the same compound?
The MIC was 0.39 mg/L (≈ 0.553 µM).

What about the MIC (S. faecalis IFO3826) of the same compound?
The MIC was over 100 mg/L.

What about the MIC (E. coli ATCC25922) of the same compound?
The MIC was 0.2 mg/L (≈ 0.283 µM).

And the MIC (S. typhi 1099-77)?
Its MIC is at most 0.006 mg/L.

And the MIC (S. flexneri Y NCTC 9730)?
Its MIC is 0.78 mg/L (≈ 1.11 µM).

What about the MIC (S. newport 563) of the same compound?
The MIC was 0.05 mg/L (≈ 0.0708 µM).

What about the MIC (P. cepacia ATCC25416) of the same compound?
The MIC was 0.78 mg/L (≈ 1.11 µM).

What about the MIC (S. aureus ATCC25923) of the same compound?
The MIC was 0.39 mg/L (≈ 0.553 µM).

And the MIC (S. paratyphi A 144-12-93)?
The MIC was 0.025 mg/L (≈ 0.0354 µM).

And the MIC (S. aureus 209P JC-1)?
The MIC was 0.39 mg/L (≈ 0.553 µM).

And the MIC (P. vulgaris ATCC6398)?
The MIC was 0.05 mg/L (≈ 0.0708 µM).

And the MIC (P. aeruginosa ATCC9721)?
The MIC was 0.1 mg/L (≈ 0.142 µM).

What about the MIC (C. freundii IFO12681) of the same compound?
The MIC was 0.39 mg/L (≈ 0.553 µM).

What about the MIC (S. paratyphi B) of the same compound?
The MIC was 0.012 mg/L (≈ 0.017 µM).

How did the MIC (C. freundii GN7391) turn out when CC(=NNC(=O)NC(C(=O)NC1C(=O)N2C(C(=O)O)=C(CSc3nncs3)CSC12)c1csc(N)n1)c1cccc(O)c1 (stereo not drawn) [Example 104] was run?
The MIC was 100 mg/L (≈ 151 µM).

And the MIC (E. Coli GN5482)?
The MIC was 0.78 mg/L (≈ 1.18 µM).

What about the MIC (S. marcescens GN10851) of the same compound?
The MIC was 100 mg/L (≈ 151 µM).

And the MIC (E. coli W3630/Rms212)?
The MIC was 0.39 mg/L (≈ 0.589 µM).

What about the MIC (P. aeruginosa GN10) of the same compound?
Its MIC is 6.25 mg/L (≈ 9.44 µM).

And the MIC (P. rettgeri GN4430)?
The MIC was 0.2 mg/L (≈ 0.302 µM).

What about the MIC (E. cloacae GN7471) of the same compound?
Its MIC is 3.13 mg/L (≈ 4.73 µM).

What about the MIC (P. vulgaris GN7919) of the same compound?
The MIC was 50 mg/L (≈ 75.6 µM).

What about the MIC (P. morganii GN5407) of the same compound?
The MIC was 0.39 mg/L (≈ 0.589 µM).

What about the MIC (E. coli W3630/Rte16) of the same compound?
Its MIC is 0.2 mg/L (≈ 0.302 µM).

What about the MIC (E. coli W3630/Rms213) of the same compound?
The MIC was 0.1 mg/L (≈ 0.151 µM).

How did the MIC (C. freundii GN7391) turn out when CC(=O)Oc1cc(OC(C)=O)cc(C(=O)NNC(=O)NC(C(=O)NC2C(=O)N3C(C(=O)O)=C(CSc4nncs4)CSC23)c2csc(N)n2)c1 (stereo not drawn) [Example 118] was run?
Its MIC is over 100 mg/L.

What about the MIC (E. Coli GN5482) of the same compound?
Its MIC is 1.56 mg/L (≈ 2.04 µM).

What about the MIC (S. marcescens GN10851) of the same compound?
The MIC was 100 mg/L (≈ 131 µM).

What about the MIC (E. coli W3630/Rms212) of the same compound?
Its MIC is 0.39 mg/L (≈ 0.511 µM).

What about the MIC (P. aeruginosa GN10) of the same compound?
The MIC was 6.25 mg/L (≈ 8.18 µM).

And the MIC (P. rettgeri GN4430)?
Its MIC is 0.39 mg/L (≈ 0.511 µM).

And the MIC (E. cloacae GN7471)?
Its MIC is 6.25 mg/L (≈ 8.18 µM).

And the MIC (P. vulgaris GN7919)?
Its MIC is 100 mg/L (≈ 131 µM).

And the MIC (P. morganii GN5407)?
Its MIC is 0.78 mg/L (≈ 1.02 µM).

And the MIC (E. coli W3630/Rte16)?
The MIC was 0.39 mg/L (≈ 0.511 µM).

And the MIC (E. coli W3630/Rms213)?
Its MIC is 0.2 mg/L (≈ 0.262 µM).
